Here are results for 20 compounds from US10758534B2 (Vertex Pharmaceuticals Incorporated, priority 2014, dated 2020).

The structures appear in SMILES notation.

For the assay, the target named is T1, F508del (Homo sapiens, UniProt P13569, DEL508-508).
T1 construct: expressed in transfected cells
T1 sequence (P13569 with tags, fused parts or gaps DEL508-508): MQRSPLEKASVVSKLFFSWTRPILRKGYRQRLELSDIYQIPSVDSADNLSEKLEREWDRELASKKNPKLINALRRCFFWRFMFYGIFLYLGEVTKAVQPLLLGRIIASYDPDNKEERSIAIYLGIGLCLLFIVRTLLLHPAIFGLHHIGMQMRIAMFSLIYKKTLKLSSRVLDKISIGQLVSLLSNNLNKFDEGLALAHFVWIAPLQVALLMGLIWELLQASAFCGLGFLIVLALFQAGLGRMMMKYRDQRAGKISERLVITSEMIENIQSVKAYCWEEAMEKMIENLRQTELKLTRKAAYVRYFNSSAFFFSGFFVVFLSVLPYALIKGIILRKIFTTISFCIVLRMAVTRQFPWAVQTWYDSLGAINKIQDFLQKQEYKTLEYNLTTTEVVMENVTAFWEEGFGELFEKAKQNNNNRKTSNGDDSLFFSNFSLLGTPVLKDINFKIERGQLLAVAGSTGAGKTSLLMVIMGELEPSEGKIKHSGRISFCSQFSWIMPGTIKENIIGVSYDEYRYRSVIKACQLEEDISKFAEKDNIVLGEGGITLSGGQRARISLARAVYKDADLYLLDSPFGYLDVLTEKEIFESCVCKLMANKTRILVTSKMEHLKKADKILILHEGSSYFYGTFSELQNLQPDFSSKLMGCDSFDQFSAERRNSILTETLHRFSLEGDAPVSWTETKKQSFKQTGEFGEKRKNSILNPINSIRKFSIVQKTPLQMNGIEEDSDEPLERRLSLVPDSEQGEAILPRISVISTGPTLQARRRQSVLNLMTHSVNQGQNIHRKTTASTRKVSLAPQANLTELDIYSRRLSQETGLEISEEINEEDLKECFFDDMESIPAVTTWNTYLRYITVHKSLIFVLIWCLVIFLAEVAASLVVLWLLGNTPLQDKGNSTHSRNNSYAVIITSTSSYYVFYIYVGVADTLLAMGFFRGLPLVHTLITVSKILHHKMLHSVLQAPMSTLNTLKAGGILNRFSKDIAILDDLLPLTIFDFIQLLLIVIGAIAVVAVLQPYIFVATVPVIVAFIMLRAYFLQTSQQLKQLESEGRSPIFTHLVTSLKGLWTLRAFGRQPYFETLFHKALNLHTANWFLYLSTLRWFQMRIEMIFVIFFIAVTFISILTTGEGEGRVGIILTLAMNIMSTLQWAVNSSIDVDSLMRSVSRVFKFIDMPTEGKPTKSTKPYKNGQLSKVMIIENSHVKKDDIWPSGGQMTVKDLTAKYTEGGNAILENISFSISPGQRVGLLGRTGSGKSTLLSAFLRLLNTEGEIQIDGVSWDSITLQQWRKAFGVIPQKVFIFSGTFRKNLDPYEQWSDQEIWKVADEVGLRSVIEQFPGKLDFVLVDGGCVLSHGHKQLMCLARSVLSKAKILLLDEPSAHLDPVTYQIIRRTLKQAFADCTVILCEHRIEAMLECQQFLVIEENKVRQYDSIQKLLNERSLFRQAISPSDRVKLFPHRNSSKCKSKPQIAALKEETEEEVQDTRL
Description: Protocol 1: membrane potential optical assay (FLIPR III, voltage sensing dye), identification of potentiator compounds. In kind it is cell-based. The conditions noted are these: Table 3, compounds of Table 1. A digest of the protocol:
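Gating potentiation is read as a membrane-potential fluorescence change (FLIPR III, voltage-sensing dye) after one forskolin addition under a Cl− gradient, with gluconate replacing chloride, pH 7.4. Cells are F508del-expressing NIH3T3 mouse fibroblasts held 24 h at 27 °C and exposed to compound before dye loading.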
On to `CC(C)COc1cc(F)cc(-c2ccc(C(=O)NS(=O)(=O)c3ccc(OCc4ccccc4)c(N)n3)c(N3C[C@@H](C)CC3(C)C)n2)c1` [Compound 1429, N-[(6-amino-5-benzyloxy-2-pyridyl)sulfonyl]-6-(3-fluoro-5-isobutoxy-phenyl)-2-[(4S)-2,2,4-trimethylpyrrolidin-1-yl]pyridine-3-carboxamide], for which the EC30 result is “+++ (“+++” means <3 uM)”.

On to `CC(C)Oc1ccc(-c2ccc(C(=O)NS(=O)(=O)c3cccc(N)n3)c(N3CCCC3(C)C)n2)cn1` [Compound 834, N-[(6-amino-2-pyridyl)sulfonyl]-2-(2,2-dimethylpyrrolidin-1-yl)-6-(6-isopropoxy-3-pyridyl)pyridine-3-carboxamide], for which the EC30 entry is “+++ (“+++” means <3 uM)”.

Regarding `CC1(C)C(CC2CC2)CCN1c1ncccc1C(=O)NS(=O)(=O)c1cccc(N)n1` (centres unmarked) [Compound 1794, N-[(6-amino-2-pyridyl)sulfonyl]-2-[3-(cyclopropylmethyl)-2,2-dimethyl-pyrrolidin-1-yl]pyridine-3-carboxamide], the EC30 result was “++ (“++” means between 3 uM and 10 uM)”.

For the compound `COc1cccc(S(=O)(=O)NC(=O)C2Cc3ccccc3CCN2Cc2c(C)cc(C)cc2C)n1` (centres unmarked) [Compound 948, N-[(6-methoxy-2-pyridyl)sulfonyl]-3-[(2,4,6-trimethylphenyl)methyl]-1,2,4,5-tetrahydro-3-benzazepine-4-carboxamide], the EC30 entry was “+++ (“+++” means <3 uM)”.

Turning to `CC(C)COc1cc(F)cc(-c2ccc(C(=O)NS(=O)(=O)c3cccc(N)n3)c(N3CC(C)CCC3C)n2)c1` (single isomer, unassigned) [Compound 1855, N-[(6-amino-2-pyridyl)sulfonyl]-2-(2,5-dimethyl-1-piperidyl)-6-(3-fluoro-5-isobutoxy-phenyl)pyridine-3-carboxamide], the EC30 entry is on record as “+++ (“+++” means <3 uM)”.

Consider `Cc1cc(C)c(Oc2nc(C)ccc2C(=O)NS(=O)(=O)c2cccc(N3CCOCC3)n2)c(C)c1` [Compound 883, 6-methyl-N-[(6-morpholino-2-pyridyl)sulfonyl]-2-(2,4,6-trimethylphenoxy)pyridine-3-carboxamide], for which the EC30 entry was “++ (“++” means between 3 uM and 10 uM)”.

As to `Cc1cc(C)c(CN2C[C@H](c3ccccc3)C[C@H]2C(=O)NS(=O)(=O)c2cccc(N)n2)c(C)c1` [Compound 870, (2S,4S)—N-[(6-amino-2-pyridyl)sulfonyl]-4-phenyl-1-[(2,4,6-trimethylphenyl)methyl]pyrrolidine-2-carboxamide], the EC30 result is “++ (“++” means between 3 uM and 10 uM)”.

Consider `Cc1cc(C)c(Oc2nc(C3CC3)ccc2C(=O)NS(=O)(=O)c2cccc(N)n2)c(C)c1` [Compound 1050, N-[(6-amino-2-pyridyl)sulfonyl]-6-cyclopropyl-2-(2,4,6-trimethylphenoxy)pyridine-3-carboxamide], for which the EC30 result was “++ (“++” means between 3 uM and 10 uM)”.

For `CC(C)COc1cc(F)cc(-c2ccc(C(=O)NS(=O)(=O)c3cccc(N)n3)c(N3CC(C)(C)CC3(C)C)n2)c1` [Compound 850, N-[(6-amino-2-pyridyl)sulfonyl]-6-(3-fluoro-5-isobutoxy-phenyl)-2-(2,2,4,4-tetramethylpyrrolidin-1-yl)pyridine-3-carboxamide], the EC30 result is recorded as “+++ (“+++” means <3 uM)”.

`CC1CN(c2ncccc2C(=O)NS(=O)(=O)c2cccc(Nc3cc(F)c(F)cc3F)n2)C(C)(C)C1` (centres unmarked) [Compound 1796, N—[[6-(2,4,5-trifluoroanilino)-2-pyridyl]sulfonyl]-2-(2,2,4-trimethylpyrrolidin-1-yl)pyridine-3-carboxamide]: the EC30 entry is recorded as “+++ (“+++” means <3 uM)”.

On to `CC(C)COc1cc(F)cc(-c2ccc(C(=O)NS(=O)(=O)c3cccc(N)n3)c(N3CCCC3c3ccccc3)n2)c1` (centres unmarked) [Compound 859, N-[(6-amino-2-pyridyl)sulfonyl]-6-(3-fluoro-5-isobutoxy-phenyl)-2-(2-phenylpyrrolidin-1-yl)pyridine-3-carboxamide], for which the EC30 result is “+++ (“+++” means <3 uM)”.

`CC1CN(c2ncccc2C(=O)NS(=O)(=O)c2cccc(OCCC3CCCCC3)n2)C(C)(C)C1` (centres unmarked) [Compound 1800, N—[[6-(2-cyclohexylethoxy)-2-pyridyl]sulfonyl]-2-(2,2,4-trimethylpyrrolidin-1-yl)pyridine-3-carboxamide]: the EC30 entry is listed as “+++ (“+++” means <3 uM)”.

In the case of `CC(C)COc1cc(F)cc(-c2ccc(C(=O)NS(=O)(=O)c3cccc(N)n3)c(N3CCCC(C)C3C)n2)c1` (centres unmarked) [Compound 837, N-[(6-amino-2-pyridyl)sulfonyl]-2-(2,3-dimethyl-1-piperidyl)-6-(3-fluoro-5-isobutoxy-phenyl)pyridine-3-carboxamide], the EC30 entry is reported as “+++ (“+++” means <3 uM)”.

For the compound `Cn1ccc2cccc(Oc3nc(C(C)(C)C)ccc3C(=O)NS(=O)(=O)c3cccc(N)n3)c21` [Compound 1071, N-[(6-amino-2-pyridyl)sulfonyl]-6-tert-butyl-2-(1-methylindol-7-yl)oxy-pyridine-3-carboxamide], the EC30 entry is “+++ (“+++” means <3 uM)”.

Turning to `CC(C)COc1cc(F)cc(-c2ccc(C(=O)NS(=O)(=O)c3ccn[nH]3)c(N3CCC(C)C3(C)C)n2)c1` (centres unmarked) [Compound 997, 6-(3-fluoro-5-isobutoxy-phenyl)-N-(1H-pyrazol-5-ylsulfonyl)-2-(2,2,3-trimethylpyrrolidin-1-yl)pyridine-3-carboxamide], the EC30 result was “++ (“++” means between 3 uM and 10 uM)”.

Regarding `CC(C)Oc1ccc(-c2ccc(C(=O)NS(=O)(=O)c3cccc(N)n3)c(N3C[C@H]4CC[C@@H]3C4)n2)cn1` [Compound 921, N-[(6-amino-2-pyridyl)sulfonyl]-2-[(1S,4R)-3-azabicyclo[2.2.1]heptan-3-yl]-6-(6-isopropoxy-3-pyridyl)pyridine-3-carboxamide], the EC30 entry is “++ (“++” means between 3 uM and 10 uM)”.

Turning to `CNc1ccc(C(=O)NS(=O)(=O)c2cccc(N)n2)c(Oc2c(C)cc(C)cc2C)n1` [Compound 983, N-[(6-amino-2-pyridyl)sulfonyl]-6-(methylamino)-2-(2,4,6-trimethylphenoxy)pyridine-3-carboxamide], the EC30 entry is “++ (“++” means between 3 uM and 10 uM)”.

Turning to `COc1ccc(C)c(-c2nc(N3CC(C)CC3(C)C)c(C(=O)NS(=O)(=O)c3cccc(N)n3)cc2C)c1` (centres unmarked) [Compound 1287, N-[(6-amino-2-pyridyl)sulfonyl]-6-(5-methoxy-2-methyl-phenyl)-5-methyl-2-(2,2,4-trimethylpyrrolidin-1-yl)pyridine-3-carboxamide], the EC30 entry is given as “+++ (“+++” means <3 uM)”.

On to `Cc1cc(C)c(Oc2nc(-c3ccccc3)cc(C)c2C(=O)NS(=O)(=O)c2cccc(N)n2)c(C)c1` [Compound 1102, N-[(6-amino-2-pyridyl)sulfonyl]-4-methyl-6-phenyl-2-(2,4,6-trimethylphenoxy)pyridine-3-carboxamide], for which the EC30 entry is listed as “+++ (“+++” means <3 uM)”.

Consider `CC(C)COc1cc(F)cc(-c2ccc(C(=O)NS(=O)(=O)c3ccn[nH]3)c(N3CCC(C)CC3)n2)c1` [Compound 1083, 6-(3-fluoro-5-isobutoxy-phenyl)-2-(4-methyl-1-piperidyl)-N-(1H-pyrazol-5-ylsulfonyl)pyridine-3-carboxamide], for which the EC30 entry is “+++ (“+++” means <3 uM)”.
